Tests used:
[1] = Release from TC-32 coated stents, non-implanted and explanted from swine, into phosphate buffer; assay type: physicochemical, common swine; conditions: stents harvested on study day 5 from swine LAD and non-implanted stents; 0.1 M phosphate buffer
Protocol: Polyurethane (1.008 gm) was added to 50.0 gm of tetrahydrofuran (THF). The mixture was stirred overnight to dissolve the polymer. 5.0 gm of the polymer solution was diluted with 10.0 gm of THF. 150.2 mg of a co-drug of 5-fluorouracil (5FU) and triamcinolone acetonide (TA) (the co-drug being defined as “TC-32”) was added to the polymer solution and dissolved. The coating solution was prepared with 60% codrug loading. A 13% codrug loaded coating solution was also prepared. Bare stents (Tetra, Guidant, Lot# 1092154, 13 mm Tetra) were washed with isopropanol, air-dried, and spray coated with the coating solution using a precision airbrush. The coating was repeated until approximately 1.0 mg of total coating had been applied to each stent. The coated stents were vacuum dried for two hours at 50° C. to remove solvent residue, then subjected to plasma treatment and gamma-irradiation.
Co-drug coated stents were test in two groups. […] Samples were taken periodically and the concentration of co-drug in the buffer was tested by HPLC. The entire release media was replaced after each sample.
Group Two stents were placed in vivo. Three common swine had TC-32 coated stents implanted into the left anterior descending (LAD) coronary artery on study day 1. […] The amount of each drug released into the media was determined by HPLC.

[2] = Effect of gamma irradiation and plasma treatment on drug release from coated stents; assay type: physicochemical; conditions: stents with or without plasma treatment and gamma-irradiation; 0.1 M phosphate buffer pH 7.4
Protocol: FIGS. 11A and 11B are graphs showing the effect of gamma irradiation and plasma treatment on drug release. […] Samples were taken periodically and the entire release media was replaced after each sample. The amount of each drug released into the media was determined by HPLC.

[3] = Release test from Chronoflex polymer/TC-32 dip-coated stents into phosphate buffer; assay type: physicochemical; conditions: phosphate buffer pH 7.4, 37° C., HPLC
Protocol: To 5.0 gm of stirred dimethyl acetamide (DMAC), 300 mg of Chronoflex C(65D) (Lot# CTB-G25B-1234) and 200 mg of Chronoflex C(55D) (Lot# CTB-121B-1265) were added. The polymer was slowly dissolved in DMAC (about 4 hours). Then 5.0 gm of THF was added to the polymer dispersion. The mixture was not a clear solution. Then 100.9 mg of TC-32 was added and dissolved in the mixture.
Three (3) Stents, supplied by Guidant Corp, were coated then with the polymer/TC-32 solution by dipping and followed by air-drying under ambient temperature. The coating and air-drying process was repeated a few times till a total of about 2.0 mg of polymer/TC-32 were applied to each stent. The coated stents were air-dried under ambient temperature in a biological safety cabinet over night. The stents were then vacuum dried at 80° C. for two hour to remove the residue of the solvent. […] Samples were taken daily, and the entire media was replaced with a fresh one at each sampling time.

[4] = Release test from Chronoflex polymer/TC-32 coated HPLC inserts into phosphate buffer; assay type: physicochemical
Protocol: A mixture of 3.3 gm Chronoflex C(65D) (Lot# CTB-G25B-1234) dispersion containing 0.3 gm of Chronoflex C(65D) and 2.2 gm Chronoflex C(55D) (Lot# CTB-121B-1265) dispersion containing 0.2 gm of Chronoflex C (55D), both in dimethyl acetamide (DMAC) (1:10, w/w) was prepared by mixing the two dispersions together. To this mixture, 6.0 gm of tetrahydrofurane (HPLC grade) were added and mixed. The final mixture was not a clear solution. Then 101.5 mg of a co-drug of 5-fluorouracil (5FU) and triamcinolone acetonide (TA) (the co-drug being defmed as “TC-32”) was added and dissolved into the polymer solution.
Ten (10) HPLC inserts were then coated with the polymer/TC-32 solution by dipping, which was then followed by air-drying under ambient temperature. The coating and air-drying process was repeated four (4) times (5 times total) until a total of about 10 mg of polymer/TC-32 was applied to each insert. The inserts were then placed in an oven at 80° C. for two hour to remove the residue of the solvent.

[5] = Release test from PVA coated glass plates into phosphate buffer, HPLC; assay type: physicochemical; conditions: 0.1 M phosphate buffer pH 7.4, 37° C., intact compound plus constituents
[6] = Release test from silicone coated glass plates into phosphate buffer, HPLC
Description: Samples were taken daily, and the entire release media was replaced with fresh media at each sampling time. […] Again, the data represent both intact and constituents of the inventive compound.

Compound | intact codrug in release media [1] | intact codrug in release media [2] | intact codrug in the release media [3] | half-life in buffer ([4]; 0.1 m phosphate buffer, pH 7.4, 37° C.) | intact codrug in the release media ([4]; coated HPLC inserts, phosphate buffer pH 7.4, 37° C., HPLC) | release rate (slope of total cumulative release curve) [5] | release rate (slope of total cumulative release curve) ([6]; silicone coated glass plates, 0.1 M phosphate buffer pH 7.4, 37° C., intact compound plus constituents) | naproxen detected in release media ([6]; silicone coated glass plates, up to day 6, phosphate buffer pH 7.4, 37° C.) | TC-112 detected in buffer ([6]; silicone coating, up to day 6) | TC-112 hydrolyzed (calculated from naproxen detected) ([6]; silicone coating, up to day 6) | total TC-112 released (detected plus hydrolyzed) ([6]; silicone coating, up to day 6)
CC1(C)O[C@@H]2CC3C4CCC5=CC(=O)C=CC5(C)[C@@]4(F)[C@@H](O)CC3(C)[C@]2(C(=O)COC(=O)OCn2cc(F)c(=O)[nH]c2=O)O1 (some centres unmarked) [TC-32] | not detectable | not detectable | No TC-32 was detectable | short | no TC-32 was detectable | – | – | – | – | – | –
COc1ccc2cc(C(C)C(=O)OCn3cc(F)c(=O)[nH]c3=O)ccc2c1 (centres unmarked) [TC-112] | – | – | – | – | – | 10 µg/day | 13.3 µg/day | 43.9 mg | 51.4 mg | 71.0 mg | 122.4 mg
